Test results reported in US5637596A, “Azabicycloalkyl derivatives of imidazo[1,5-a]indol-3-one and process for their preparation” (Pharmacia S.p.A., priority 1994, dated 1997).

How the values were obtained:
[1] = molecular target: T1, serotonin 5HT3 receptors (Rattus norvegicus, UniProt P35563); assay: Affinity for serotonin 5HT3 receptors in rat entorhinal cortex using radioligand 3H-BRL 43694; type: binding
T1 construct: assessed for instance in rat entorhinal cortex using a selective radioligand; from tissue; host or cells: rat entorhinal cortex
T1 sequence (P35563 24-483): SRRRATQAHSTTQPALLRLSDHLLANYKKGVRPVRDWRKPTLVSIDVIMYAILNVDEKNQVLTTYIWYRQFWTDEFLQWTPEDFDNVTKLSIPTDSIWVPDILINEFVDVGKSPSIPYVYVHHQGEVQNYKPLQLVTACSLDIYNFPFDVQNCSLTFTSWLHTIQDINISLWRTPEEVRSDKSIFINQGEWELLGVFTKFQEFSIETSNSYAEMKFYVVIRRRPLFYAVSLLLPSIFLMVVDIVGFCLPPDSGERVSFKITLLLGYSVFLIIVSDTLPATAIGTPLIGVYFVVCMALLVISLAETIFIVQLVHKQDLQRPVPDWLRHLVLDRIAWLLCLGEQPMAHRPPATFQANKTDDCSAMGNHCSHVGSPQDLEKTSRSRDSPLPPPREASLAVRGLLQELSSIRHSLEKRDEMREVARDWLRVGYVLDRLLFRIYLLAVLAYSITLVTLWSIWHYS
Protocol: The affinity for serotonin 5HT3 receptors was assessed for instance in rat entorhinal cortex using a selective radioligand ^3 H-BRL 43694 as described by Nelson and Thomas (1989).
Nelson D. R. and Thomas D. R., [^3 H]-BRL 43694 (Granisetron), a specific ligand for 5HT3 binding sites in rat brain cortical membranes, Biochem. Pharmac., 38, 1693-1695, 1989.
The following Table II summarized the data obtained in this in-vitro test for two representative compounds of the invention.
5-HT3 binding affinity for rat enthiorinal cortex

[2] = molecular target: T2, 5HT3 receptor (Rattus norvegicus, UniProt P35563); assay: Inhibition of the von Bezold-Jarisch chemoreflex evoked by 5-HT in the anesthetized rat (in-vivo 5HT3 antagonist activity); conditions: von Bezold-Jarisch reflex elicited by 5-HT (30 μg/kg i.v.); for ED50: iv, limits printed on the next line; for % inhibition: dose 100 μg/kg i.v., N = 6, mean
T2 construct: chemoreflex evoked by 5HT in the anesthetized rat; from tissue; host or cells: anesthetized rat, whole animal (endogenous receptor)
T2 sequence (P35563 24-483): T1 sequence (P35563 24-483)
Protocol: Pharmacol. 326, 36-44 (1984).
The following Table I reports in-vivo 5HT3 antagonist activity data obtained in this test for two representative compounds of the invention.
Inhibition of the von Bezold-Jarisch reflex
elicited by 5-HT (30 μg/kg i.v.) by FCE
compounds in the anesthetized rat. Values are
mean ± in S.E.M. from N animals

Row | Structure (SMILES) | IC50 [1] [nM] | ED50 [2] [mg/kg] | % inhibition [2] [%]
1 | CN1C2CCC1CC(N1Cc3cc4ccccc4n3C1=O)C2 (stereo not drawn) [FCE 28837, (endo)-2-(8-methyl-8-azabicyclo[3.2.1]oct-3-yl)-1,2-dihydro-imidazo[1,5-a]indol-3-one] | 10 | 0.0118 | 88.5
2 | Cl.O=C1N(C2CN3CCC2CC3)Cc2cc3ccccc3n21 (stereo not drawn) [FCE 28841, 2-(1-azabicyclo[2.2.2]oct-3-yl)-1,2-dihydro-imidazo[1,5-a]indol-3-one hydrochloride] | 7 | 0.0218 | 90.71
